How the values were obtained:
[1] = Assessment of hydrolysis rate under spray drying feed conditions (pH 8.0 buffer/limonene emulsion); type: physicochemical; conditions: pH 8.0 phosphate buffer; for t50 at pH 8.0: precursor dissolved in limonene, emulsion, time to 50% of maximum absorbance
Experimental: Acetaldehyde precursors suitable for rendering into dry powders must avoid releasing significant levels of acetaldehyde during various stages of processing. In particular they should resist hydrolysis during the preparation of a spray drying feed emulsion, which can be neutral to basic pH and can contain a significant volume fraction of an oil phase.
A pH 8.0 buffer solution was prepared by adding 49.92 g disodium phosphate heptahydrate (CAS 7782-85-6) and 1.93 g monosodium phosphate (CAS 7558-80-7) to 1 L of deionised water. Aliquots of 0.20 g the Example 1-2 preparations were dissolved in 0.8 g of limonene (CAS 5989-25-7) added to 10 g of the buffer solution within a 30 mL Erlenmeyer flask containing a stir bar. The concentration of acetaldehyde in solution was monitored as a function of time using a UV/V is spectrometer probe measuring absorbance at 276 nm. Stirring was periodically stopped to allow oil droplets to rise to the surface and collect an unobscured absorbance reading of the aqueous solution. Release followed mixed zero and first order kinetics. t50 (the time to 50% of the maximum absorbance) values are reported in Table 2. […] Comparative Sample 1 has t50 of 2.1 minutes, which is so short that a person skilled in the art would consider this compound at risk of experiencing a problematic degree of hydrolysis during processing. Example 1 has a much longer t50 value and released acetaldehyde more slowly than Comparative Sample 1.

[2] = Assessment of hydrolysis rate at pH 3.0 (acetaldehyde release, UV absorbance at 276 nm); type: physicochemical; conditions: pH 3.0 buffer
Experimental: Instant beverage applications require rapid hydrolysis of the precursor molecules in order to rapidly release acetaldehyde. Because such beverages might be consumed immediately upon preparation, it is desired for the release to be as rapid as possible.
A pH 3.0 buffer solution was prepared by adding 16.43 g citric acid (CAS 77-92-9) and 4.26 g disodium citrate (CAS 144-33-2) to 1 L of deionized water. Aliquots of the Example 1-2 preparations were added to the buffer solution within a Distek 2100B USP 2 dissolution system stirring at 200 rpm. The concentration of acetaldehyde in solution was monitored as a function of time using a UV/V is spectrometer probe which measured absorbance at 276 nm every 1 second. Results for comparative samples were taken from work by Gassenmeier et al..

| t50 ([1]; limonene emulsion) [min] | t50 at pH 8.0 [1] | SMILES | Rate of acetaldehyde release compared with comparative samples [2] | Increase in absorbance at 276 nm (release of acetaldehyde) ([1]; limonene emulsion, over 1 hour) |
| --- | --- | --- | --- | --- |
| 2.1 | 2.1 min | CCOC(C)OC(C)=O (centres unmarked) [Comparative Sample 1, 1-ethoxyethyl acetate, reference compound] |  |  |
|  | >>1 hour | C=CC1(C)CCC(C(C)(C)OC(C)OCC)O1 (centres unmarked) [Example 1, 5-(2-(1-ethoxyethoxy)propan-2-yl)-2-methyl-2-vinyltetrahydrofuran] | released acetaldehyde faster than Comparative Samples 2-5 | no measurable increase in absorbance over 1 hour |
